From patent publication US10618913B2, “Macrocycles as PDE1 inhibitors” (H. Lundbeck A/S, priority 2017, dated 2020)
Where two headings read alike, the source gives them in different places.

Columns and labels:
Assay type in all cases: biochemical
[1] = target: PDE1C (Homo sapiens (Human), UniProt Q14123); assay: PDE1 inhibition assay (SPA, tritium labelled cAMP), PDE1C; conditions: Table 1, compounds of the invention; 15 nM tritium labelled cAMP
Procedure: Reactions were initiated by addition of the cyclic nucleotide substrate, and reactions were allowed to proceed for 1 hr at room temperature before being terminated through mixing with 20 μL (0.2 mg) yttrium silicate SPA beads (PerkinElmer). The beads were allowed to settle for 1 hr in the dark before the plates were counted in a Wallac 1450 Microbeta counter.

[2] = target: PDE1A (Homo sapiens (Human), UniProt P54750); assay: PDE1 inhibition assay (SPA, tritium labelled cAMP), PDE1A; conditions: Table 1, compounds of the invention; 15 nM tritium labelled cAMP
Chain of PDE1A (P54750 whole entry): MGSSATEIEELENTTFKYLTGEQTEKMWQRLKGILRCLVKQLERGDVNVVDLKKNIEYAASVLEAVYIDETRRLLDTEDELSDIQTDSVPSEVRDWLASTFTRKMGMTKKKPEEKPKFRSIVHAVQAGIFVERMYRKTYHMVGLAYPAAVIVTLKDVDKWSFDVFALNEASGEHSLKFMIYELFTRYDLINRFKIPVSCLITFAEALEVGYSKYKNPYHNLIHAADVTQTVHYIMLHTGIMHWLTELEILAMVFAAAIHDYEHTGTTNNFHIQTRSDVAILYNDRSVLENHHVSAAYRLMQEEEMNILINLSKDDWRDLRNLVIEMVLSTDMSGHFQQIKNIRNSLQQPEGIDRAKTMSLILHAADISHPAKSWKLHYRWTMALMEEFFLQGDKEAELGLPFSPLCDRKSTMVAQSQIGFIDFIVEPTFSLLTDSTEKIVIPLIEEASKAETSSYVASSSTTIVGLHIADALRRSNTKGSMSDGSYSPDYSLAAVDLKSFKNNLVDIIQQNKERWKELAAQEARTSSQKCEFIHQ
Procedure: (§1) Reactions were initiated by addition of the cyclic nucleotide substrate, and reactions were allowed to proceed for 1 hr at room temperature before being terminated through mixing with 20 μL (0.2 mg) yttrium silicate SPA beads (PerkinElmer).

[3] = target: PDE1B (Homo sapiens (Human), UniProt Q01064); assay: PDE1 inhibition assay (SPA, tritium labelled cAMP), PDE1B
Chain of PDE1B (Q01064 whole entry): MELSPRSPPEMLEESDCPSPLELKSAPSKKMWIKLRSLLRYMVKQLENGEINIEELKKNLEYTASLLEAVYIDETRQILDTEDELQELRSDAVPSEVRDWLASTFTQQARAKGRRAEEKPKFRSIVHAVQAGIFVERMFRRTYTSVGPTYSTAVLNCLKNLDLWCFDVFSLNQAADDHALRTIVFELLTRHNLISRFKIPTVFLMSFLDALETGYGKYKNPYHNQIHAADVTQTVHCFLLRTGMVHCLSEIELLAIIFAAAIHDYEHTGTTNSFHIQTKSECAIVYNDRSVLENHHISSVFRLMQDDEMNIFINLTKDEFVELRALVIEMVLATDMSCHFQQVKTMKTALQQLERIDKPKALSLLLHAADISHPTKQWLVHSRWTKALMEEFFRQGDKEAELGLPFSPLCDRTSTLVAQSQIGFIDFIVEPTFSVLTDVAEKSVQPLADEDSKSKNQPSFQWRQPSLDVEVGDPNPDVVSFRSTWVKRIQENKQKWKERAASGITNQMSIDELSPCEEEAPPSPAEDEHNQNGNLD
Procedure: as §1

[4] = Table 1, compounds of the invention, 15 nM tritium labelled cAMP, read-out: PDE1B, IC50

Chain of PDE1C (Q14123 whole entry): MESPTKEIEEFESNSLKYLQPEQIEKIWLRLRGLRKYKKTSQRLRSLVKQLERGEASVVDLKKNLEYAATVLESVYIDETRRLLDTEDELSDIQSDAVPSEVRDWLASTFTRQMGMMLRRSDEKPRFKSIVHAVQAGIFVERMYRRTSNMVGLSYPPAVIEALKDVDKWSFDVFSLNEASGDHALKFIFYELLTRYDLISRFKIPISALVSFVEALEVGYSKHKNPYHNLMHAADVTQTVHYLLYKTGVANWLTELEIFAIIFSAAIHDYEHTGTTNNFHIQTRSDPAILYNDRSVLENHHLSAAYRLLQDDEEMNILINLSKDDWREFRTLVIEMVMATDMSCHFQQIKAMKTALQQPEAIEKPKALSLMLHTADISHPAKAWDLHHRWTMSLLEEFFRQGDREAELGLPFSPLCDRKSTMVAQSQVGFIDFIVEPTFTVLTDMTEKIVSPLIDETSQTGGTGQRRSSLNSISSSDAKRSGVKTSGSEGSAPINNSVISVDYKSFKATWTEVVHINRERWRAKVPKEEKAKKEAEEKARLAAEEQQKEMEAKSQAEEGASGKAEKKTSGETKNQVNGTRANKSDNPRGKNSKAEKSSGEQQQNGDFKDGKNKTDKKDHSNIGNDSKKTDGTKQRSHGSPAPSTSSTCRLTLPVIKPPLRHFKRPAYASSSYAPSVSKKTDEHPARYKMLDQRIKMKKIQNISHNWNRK

Cc1nn(C(C)C)c2c3cc(nc12)-c1cccnc1OCCCCOc1ncccc1CN3 [Example 1, 2^1-isopropyl-2^3-methyl-2^1H-6,11-dioxa-3-aza-2(5,7)-pyrazolo[4,3-b]pyridina-1,5(3,2)-dipyridinacycloundecaphane]
IC50 [1]: 20 nM
IC50 [2]: 12 nM
IC50 [3]: 1.4 nM

Cc1nn(C(C)C)c2c3cc(nc12)-c1cccnc1OCCCCCOc1ncccc1CN3 [Example 2, 2^1-isopropyl-2^3-methyl-2^1H-6,12-dioxa-3-aza-2(5,7)-pyrazolo[4,3-b]pyridina-1,5(3,2)-dipyridinacyclododecaphane]
IC50 [1]: 54 nM
IC50 [2]: 18 nM
IC50 [3, 4]: 1.5 nM

Cc1nn(C(C)C)c2c3cc(nc12)-c1cccnc1OCCCOc1ncccc1CN3 [Example 3, 2^1-isopropyl-2^3-methyl-2^1H-6,10-dioxa-3-aza-2(5,7)-pyrazolo[4,3-b]pyridina-1,5(3,2)-dipyridinacyclodecaphane]
IC50 [1]: 69 nM
IC50 [2]: 38 nM
IC50 [3, 4]: 4.2 nM

Cc1nn(C(C)C)c2c3cc(nc12)-c1cccnc1OCCOCCOc1ncccc1CN3 [Example 4, 2^1-isopropyl-2^3-methyl-2^1H-6,9,12-trioxa-3-aza-2(5,7)-pyrazolo[4,3-b]pyridina-1,5(3,2)-dipyridinacyclododecaphane]
IC50 [1]: 16 nM
IC50 [2]: 2.6 nM
IC50 [3, 4]: 0.54 nM

Cc1nn(C(C)C)c2c3cc(nc12)-c1cccnc1OCCCCCn1nccc1CN3 [Example 5, 2^1-isopropyl-2^3-methyl-2^1H,5^1H-11-oxa-3-aza-2(5,7)-pyrazolo[4,3-b]pyridina-1(3,2)-pyridina-5(5,1)-pyrazolacycloundecaphane]
IC50 [1]: 80 nM
IC50 [2]: 25 nM
IC50 [3, 4]: 4.7 nM

Cc1nn(C(C)C)c2c3cc(nc12)-c1cccnc1OCCCCOc1cccnc1CN3 [Example 6, 2^1-isopropyl-2^3-methyl-2^1H-6,11-dioxa-3-aza-2(5,7)-pyrazolo[4,3-b]pyridina-1(3,2),5(2,3)-dipyridinacycloundecaphane]
IC50 [1]: 3.9 nM
IC50 [2]: 0.47 nM
IC50 [3, 4]: 0.27 nM

Cc1nn(C)c2c3cc(nc12)-c1cccnc1OCCCCOc1ncccc1CN3 [Example 7, 2^1,2^3-dimethyl-2^1H-6,11-dioxa-3-aza-2(5,7)-pyrazolo[4,3-b]pyridina-1,5(3,2)-dipyridinacycloundecaphane]
IC50 [1]: 497 nM
IC50 [2]: 428 nM
IC50 [3, 4]: 95 nM

CCn1nc(C)c2nc3cc(c21)NCc1cccnc1OCCCCOc1ncccc1-3 [Example 8, 2^1-ethyl-2^3-methyl-2^1H-6,11-dioxa-3-aza-2(5,7)-pyrazolo[4,3-b]pyridina-1,5(3,2)-dipyridinacycloundecaphane]
IC50 [1]: 412 nM
IC50 [2]: 256 nM
IC50 [3, 4]: 36 nM

Cc1nn(C(C)C)c2c3cc(nc12)-c1cccnc1OCCCCn1nccc1CN3 [Example 9, 2^1-isopropyl-2^3-methyl-2^1H,5^1H-10-oxa-3-aza-2(5,7)-pyrazolo[4,3-b]pyridina-1(3,2)-pyridina-5(5,1)-pyrazolacyclodecaphane]
IC50 [1]: 56 nM
IC50 [2]: 53 nM
IC50 [3, 4]: 15 nM

Cc1nn(C(C)C)c2c3cc(nc12)-c1cccnc1OCCCCOc1nccnc1CN3 [Example 10, 2^1-isopropyl-2^3-methyl-2^1H-6,11-dioxa-3-aza-2(5,7)-pyrazolo[4,3-b]pyridina-5(2,3)-pyrazina-1(3,2)-pyridinacycloundecaphane]
IC50 [1]: 17 nM
IC50 [2]: 10 nM
inhibition at 10 µM ([3]; read-out: PDE1B, inhibition at 10 μM): > 99%
